Assay [1] addresses ER50.SaCas9.ER50 (Homo sapiens, UniProt P03372, G521R/L384M/M421G/N519S/T371A/Y537S). The conditions noted are these: cells expressing ER50.SaCas9.ER50 treated with 40HT.
Excerpt: Assessment of dose-responsiveness of DD-regulated SaCas9 gene editing activity.
Assay [2] concerns ER50.Cas9.ER50. Description: Cas9-mediated eGFP knockout (eGFP disruption) in U20S.eGFP-PEST cells nucleofected with ER50.Cas9.ER50. The format is cell-based. The settings on record: increasing concentrations 0.5-1000 nM, 48 h. The source says:
FIG. 3A-3B. […] (a) Representative images of conditional control of Cas9-mediated eGFP knockout in U20S.eGFP-PEST cells. […] Error bars represent standard deviation from biological replicates (n=6).

Assay [3] deals with engineered Cas9 system comprising a functionalized guide with DHFR destabilization domain. Put plainly: Induction of ASCL1 mRNA by engineered DD-Cas9 SAM with stabilizing ligand (FIG. 11). The format is cell-based. The conditions noted are these: cells transiently transfected with DD-Cas9 SAM, treated with stabilizing ligand. How it is done:
FIG. 11. […] Cells were transiently transfected with engineered DD-Cas9 SAM and ASCL1 mRNA was measured. Compared to untransfected cells, DD-Cas9-SAM induced expression of ASCL1 mRNA is observed.

Assay [4] has as its target engineered Cas9-SAM system comprising a DD (ER50) (Homo sapiens, UniProt P03372, G521R/L384M/M421G/N519S/T371A/Y537S). The settings on record: ligand 4HT.
In assay [5] the target is ER50.MS2.p65.HSF1 (Homo sapiens, UniProt P03372, G521R/L384M/M421G/N519S/T371A/Y537S). The settings on record: targeted to ASCL1; increasing concentrations of 40HT, 18 h, qPCR.
ER50.MS2.p65.HSF1, sequence (P03372 with tags, fused parts or gaps T371A/L384M/M421G/N519S/G521R/Y537S limits assumed): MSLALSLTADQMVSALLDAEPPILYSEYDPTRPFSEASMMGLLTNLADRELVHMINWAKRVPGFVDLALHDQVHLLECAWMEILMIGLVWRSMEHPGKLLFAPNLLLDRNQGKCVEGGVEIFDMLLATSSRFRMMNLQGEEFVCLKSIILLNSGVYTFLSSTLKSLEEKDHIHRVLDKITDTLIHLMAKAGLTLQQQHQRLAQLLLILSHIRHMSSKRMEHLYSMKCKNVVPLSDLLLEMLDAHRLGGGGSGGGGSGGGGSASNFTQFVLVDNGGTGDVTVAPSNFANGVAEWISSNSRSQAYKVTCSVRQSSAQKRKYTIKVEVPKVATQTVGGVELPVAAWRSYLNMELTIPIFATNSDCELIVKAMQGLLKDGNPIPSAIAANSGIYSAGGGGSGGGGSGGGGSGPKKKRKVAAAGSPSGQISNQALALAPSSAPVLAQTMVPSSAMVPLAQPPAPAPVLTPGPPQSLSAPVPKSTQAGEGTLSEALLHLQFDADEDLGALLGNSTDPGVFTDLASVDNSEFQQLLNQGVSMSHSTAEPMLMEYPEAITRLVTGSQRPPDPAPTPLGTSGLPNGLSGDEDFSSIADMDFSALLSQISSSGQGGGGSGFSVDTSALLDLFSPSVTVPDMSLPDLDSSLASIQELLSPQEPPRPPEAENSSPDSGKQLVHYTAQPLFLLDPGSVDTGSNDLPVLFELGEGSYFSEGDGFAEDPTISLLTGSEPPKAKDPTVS
Excerpt: Multidimensional ‘chemical’ control of endogenous transcript levels. […] DHFR.PP7.VP64 was targeted to ILIRN, and ER50.MS2.p65.HSF1 was targeted to ASCL1. […] Error bars represent s.e.m. from biological replicates (n=3; a,c) or ±s.d. across technical replicates (n=4; b,d).
For assay [6], the system named is human FKBP12. The conditions noted are these: FKBP12 mutant DD; cited from earlier work.
In assay [7] the test system is Drosophila. Description: TMP-controlled gene drive in Drosophila for green body color. The format is in vivo. The conditions noted are these: in the presence of TMP, wt Cas9 for comparison, DMSO control ~50% (Mendelian inheritance).
The subject of assay [8] is DHFR-SpCas9-DHFR.
The subject of assay [9] is DHFR. Put plainly: Binding of photocaged TMP derivative to DHFR. The settings on record: before exposure to light (NVOC group attached).
Assay [10] has as its system temperature-sensitive mutant of mammalian DHFR (DHFRts). The settings on record: cells expressing DHFRts; cited from earlier work.
Assay [11] relates to human embryonic stem cells (hESCs). Description: Mutagenic NHEJ by double nickase in human embryonic stem cells. The format is cell-based. The settings on record: Cas9-D10A and two gRNAs targeted to different strands at the same location, data not shown. The source says: In some embodiments, a vector comprises a regulatory element operably linked to an enzyme-coding sequence encoding a CRISPR protein (i.e. CRISPR/Cas system effector or CRISPR effector). […] The CRISPR enzyme is Cas9, and may be Cas9 from S. pyogenes or S. pneumoniae. In some embodiments, the CRISPR enzyme directs cleavage of one or both strands at the location of a target sequence, such as within the target sequence and/or within the complement of the target sequence. In some embodiments, the CRISPR enzyme directs cleavage of one or both strands within about 1, 2, 3, 4, 5, 6, 7, 8, 9, 10, 15, 20, 25, 50, 100, 200, 500, or more base pairs from the first or last nucleotide of a target sequence. In some embodiments, a vector encodes a CRISPR enzyme that is mutated to with respect to a corresponding wild-type enzyme such that the mutated CRISPR enzyme lacks the ability to cleave one or both strands of a target polynucleotide containing a target sequence. […] In some embodiments, a Cas9 nickase may be used in combination with guide sequenc(es), e.g., two guide sequences, which target respectively sense and antisense strands of the DNA target. This combination allows both strands to be nicked and used to induce NHEJ.

The test system of assay [12] is dystrophin. The settings on record: average, across 48 weeks; cited from earlier work.

ER50.SaCas9.ER50, sequence (P03372 305-549 T371A/L384M/M421G/N519S/G521R/Y537S limits assumed): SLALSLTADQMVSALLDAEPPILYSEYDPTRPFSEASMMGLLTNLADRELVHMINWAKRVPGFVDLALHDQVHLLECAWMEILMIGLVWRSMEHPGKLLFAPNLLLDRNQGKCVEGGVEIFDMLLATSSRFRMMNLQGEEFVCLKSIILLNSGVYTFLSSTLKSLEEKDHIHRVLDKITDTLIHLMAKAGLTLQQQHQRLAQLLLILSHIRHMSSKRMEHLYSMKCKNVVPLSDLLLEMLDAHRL
engineered Cas9-SAM system comprising a DD (ER50), sequence (P03372 305-549 T371A/L384M/M421G/N519S/G521R/Y537S limits assumed): as above

4-hydroxytamoxifen [40HT]: the “nuclease activity (indel activity, Surveyor assay)” value in assay [1] is “dose dependent increase”. Further, in [2], the “genome editing (dosability)” value was “High dosability”. Also, in [3], the “ASCL1 mRNA” value is reported as “significant increase”. The “SAM-dependent expression of ASCL1 mRNA” value in assay [4] is “Increased”. In [5], the “endogenous gene upregulation (dose response)” value was “Highly dose-responsive”.

For the compound `CC[C@H](C(=O)N1CCCC[C@H]1C(=O)O[C@H](CCc1ccc(OC)c(OC)c1)c1cccc(OCCN2CCOCC2)c1)c1cc(OC)c(OC)c(OC)c1` [Shield-1], the “binding to and stabilization of the DD” value in assay [6] is “dose-dependent manner”.

As to `COc1cc(Cc2cnc(N)nc2N)cc(OC)c1OC` [TMP, trimethoprim], the “inheritance of the green-body color” value in [7] amounted to 84%. The “SpCas9-mediated knockout of the ebony gene” value in assay [8] (TMP dose dependence) was “Dose-dependent”. In [8] (TMP removal from the fly food), the “time post TMP removal from the fly food within which % ebony knockout is lowered” value is ≤ 24 h.

As to `COc1cc(COC(=O)Nc2ncc(Cc3cc(OC)c(OC)c(OC)c3)c(N)n2)c([N+](=O)[O-])cc1OC` [TMP-NVOC], the “binding to DHFR” value in assay [9] is given as “prevents photocaged TMP-NVOC from binding to DHFR”.

For the compound `CN(Cc1cnc2nc(N)nc(N)c2n1)c1ccc(C(=O)N[C@@H](CCC(=O)O)C(=O)O)cc1` [methotrexate], the “degradation of DHFRts” value in assay [10] is given as “inhibited degradation of the protein partially”.

Consider “double nickase: Cas9-D10A and two gRNAs targeted to different strands at the same location”, for which the “efficiency of inducing mutagenic NHEJ relative to nuclease (regular Cas9 without D10 mutation)” value in assay [11] was “about 50%”.

eteplirsen: the “dystrophin positive fibers compared to baseline” value in assay [12] was 47%.

(Values after patent publication US12595478B2, “Crispr-Cas systems having destabilization domain” (THE BROAD INSTITUTE, INC., priority 2016, dated 2026).)
